Columns and labels:
[1] = molecular target: T1, α1a-AR (Homo sapiens, UniProt P35348); assay: radioligand ([125I]-HEAT) receptor binding assay, COS cell membranes, α1a-AR; conditions: Tables A-J; [125I]-HEAT 50 pM, COS membranes; read-out: α1a IC50
T1 construct: expressed in transfected cells; host or cells: COS cells (pcDNA3 vector, DEAE-dextran transient transfection); membrane preparation
T1 sequence (P35348 1-466): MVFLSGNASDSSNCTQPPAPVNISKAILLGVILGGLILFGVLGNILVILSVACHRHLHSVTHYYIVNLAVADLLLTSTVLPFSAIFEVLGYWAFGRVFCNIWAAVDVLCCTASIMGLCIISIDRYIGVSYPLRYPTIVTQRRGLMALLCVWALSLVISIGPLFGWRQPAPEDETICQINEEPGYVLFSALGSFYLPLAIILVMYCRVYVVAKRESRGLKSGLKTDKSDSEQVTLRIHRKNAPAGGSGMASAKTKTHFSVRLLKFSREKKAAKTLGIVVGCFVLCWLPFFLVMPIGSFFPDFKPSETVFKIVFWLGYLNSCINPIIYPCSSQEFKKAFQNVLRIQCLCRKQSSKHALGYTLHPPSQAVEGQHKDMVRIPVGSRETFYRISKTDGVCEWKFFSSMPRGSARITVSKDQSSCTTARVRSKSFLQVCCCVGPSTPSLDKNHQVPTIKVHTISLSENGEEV
Excerpt: The first assay tested the ability of compounds of Formula I to bind to membrane bound receptors α1a-AR, α1b-AR and α1d-AR.
The DNA sequences of the three cloned human α1-AR subtypes have been published. […] We used published DNA sequence information to design-primers for use in RT-PCR amplification of each subtype to obtain cloned cDNAs. Human poly A+ RNA was obtained from commercially available sources and included hippocampus and prostate samples, sources which have been cited in the literature. For the primary screen a radio ligand binding assay was used which employed membrane preparations from cells expressing the individual cloned receptor cDNAs.
Each α1 receptor subtype was cloned from poly A+ RNA by the standard method of reverse transcription-polymerase chain reaction (RT-PCR). The following sources of polyA+ RNA were used for the cloning of the al receptor subtypes: α1a-AR, human hippocampus and prostate, α1b-AR, human hippocampus, α1d-AR, human hippocampus. The resulting cDNAs were cloned into the pcDNA3 mammalian expression vector (Invitrogen Corp., San Diego Calif.). Each DNA was sequenced for verification and to detect any possible mutations introduced during the amplification process. Any deviation in sequence from the published consensus for each receptor subtype was corrected by site-directed mutagenesis.
The three α1-AR subtypes (a, b, d) were transfected into COS cells using a standard DEAE-dextran procedure with a chloroquine shock. In this procedure, each tissue culture dish (100 mm) was inoculated with 3.5×10^6 cells and transfected with 10 μg of DNA. Approximately 72 hours post-transfection, the cells were harvested and COS membranes were prepared. Transfected COS cells from 25 plates (100 mm) were scraped and suspended in 15 mL of TE buffer (50 mM Tris-HCl, 5 mM EDTA, pH7.4). The suspension was disrupted with a homogenizer. It was then centrifuged at 1000×g for 10 minutes at 4° C. The supernatant was centrifuged at 34,500×g for 20 minutes at 4° C. The pellet was resuspended in 5 mL TNE buffer (50 mM Tris-HCl, 5 mM EDTA, 150 mM NaCl, pH7.4). The resulting membrane preparation was aliquoted and stored at −70° C. The protein concentration was determined following membrane solubilization with TritonX-100.
The ability of each compound to bind to each of the α1-AR subtypes was assessed in a receptor binding assay. […] The plate was incubated for 1 hour at room temperature and the reaction mixtures were filtered through a Packard GF/C Unifilter filter plate. The filter plate was dried for 1 hour in a vacuum oven. Scintillation fluid ([…]) was added to each well, and the filter plate was counted in a Packard Topcount scintillation counter. Data was analyzed using GraphPad Prism software.

[2] = tested on: rat aorta tissues; assay: norepinephrine-induced contractile response of rat aorta tissue; assay type: tissue-based; conditions: rat aortic rings, 37° C., pH 7.4, read-out: IC50, inhibition of contractile response in aortic tissue
Excerpt: The contractile responses of rat prostatic tissue and rat aorta tissues were examined in the presence and absence of antagonist compounds. As an indication of the selectivity of antagonism, test compound effects on vascular smooth muscle contractility (α1b-AR and α1d-AR) were compared to the effects on prostatic smooth muscle (α1a-AR). Strips of prostatic tissue and aortic rings were obtained from Long Evans derived male rats weighing 275 grams and sacrificed by cervical dislocation. The prostate tissue was placed under 1 gram tension in a 10 ml bath containing phosphate buffered saline pH 7.4 at 32° C. and isometric tension was measured with force transducers. The aortic tissue was placed under 2 grams tension in a 10 ml bath containing phosphate buffered saline pH 7.4 at 37° C. The ability of test compound to reduce the norepinephrine-induced contractile response by 50% (IC50) was determined.

For `CC(C)Oc1ccccc1N1CCN(Cc2ncc(CN3CCCCC3=O)s2)CC1` [Compound 16], the IC50 [1] was 0.00188 µM and the IC50 [2] was 13.5 µM.
Work on `CC(C)Oc1ccccc1N1CCN(Cc2cc(CN3CCCCC3=O)n[nH]2)CC1` [Compound 3] yielded an IC50 [1] of 0.0021 µM and an IC50 [2] of 31.9 µM.

From patent publication US6841682B2, “Heterocycles useful in the treatment of benign prostatic hyperplasia” (Janseen Pharmaceutica N.V., priority 1997, dated 2005)
